Measured values taken from US10093673B2, “Tetracyclic pyridone compounds as antivirals” (Novartis AG, priority 2016, dated 2018).
Values after ≈ are worked out from the molar mass of the structure shown.

What was measured:
HBsAg secretion = test: HBsAg assay (ELISA of secreted HBsAg, HepG2-Clone42 cells); type: cell-based, HBV; settings: Hepatitis B virus, read-out: HBsAg EC50, HepG2-Clone42 cells, HBsAg secretion reduced 50% vs DMSO control
Procedure: HepG2-Clone42, a Tet-inducible HBV-expressing cell line with a stably integrated 1.3mer copy of the HBV ayw strain, was generated based on the Tet-inducible HepAD38 cell line with slight modifications. Ladner S K, et al., Antimicrobial Agents and Chemotherapy. 41(8):1715-1720 (1997). HepG2-Clone42 cells were cultured in DMEM/F-12+Glutamax™ (Life Technologies, Carlsbad, Calif., USA), supplemented with 10% fetal bovine serum (Life Technologies), G-418 (Corning, Manassas, Va., USA) at a final concentration of 0.5 mg/mL, and 5 μg/mL Doxycycline (Sigma, St. Louis, Mo., USA) and maintained in 5% CO2 at 37° C.
HepG2-Clone42 cells were seeded in into black clear-bottom 96-well plates at a concentration of 6.0×10^4 cells/well. 24 hours post-seeding, the cells were treated with 200 μl/well of media containing five-fold serial dilutions of compounds in DMSO. DMSO alone was used as the no drug control. The final DMSO concentration in all wells was 0.5%.
The HBsAg ELISA kit (Alpha Diagnostic International, San Antonio, Tex., USE, Catalog #4110) was used to determine the level (semi-quantitative) of secreted HBV sAg.
The HBSAg ELISA assay was performed following the manufacturer's protocol as described.
Step 1. Pipet 100 μL each of compound or DMSO treated samples into HBsAg ELISA plates. Seal plates and incubate at room temp for 60 minutes.
Step 2. Aspirate samples and wash three times with Wash Buffer. Dispense 100μ of antibody-HRP conjugate to each well. Incubate at room temp for 30 minutes.
Step 3. Aspirate samples and wash three times with Wash Buffer. Add 100 μL of TMB Substrate to all wells and incubate 15 minutes at room temp.
Step 4. Dispense 100 μL of Stop Solution to each well. Measure absorbance of ELISA plate at 450 nm.
EC50 values were determined as follows: • 1. Determine the percent of HBsAg secretion inhibition. Calculate the percent inhibition on of HBsAg secretion inhibition using the following equation: 100×(XC−MB)/(MD−MB) • where XC is the absorbance signal from compound-treated well; MB is average absorbance signal (background signal) for column 12 (no cells+HBsAg ELISA sample buffer) and MD is average absorbance signal from DMSO-treated wells. Then calculate EC50 values by non-linear regression using a four parameter curve logistic equation. The curve fit model employed is XLFit Dose Response One Site Model 204: y=(A+((B−A)/(1+(10^((C−x)*D))))) where A is the minimum y value, B is the maximum y value, C is the log EC50 value, and D is the slope factor. High Throughput Solubility Measurement • 1. Transfer 20 ul of 10 mM DMSO stock solution into a 96 deep well plate labeled as […] and 5 ul to another plate labeled as compound standard plate. • 2. Place the buffer plate in a Multi-Tainer MT-4 container (FTS Systems). Freeze dry overnight to remove DMSO. • 3. Add 100 ul of Cl-free PBS (pH 6.8) to the dried compound in the buffer plate and 95 ul of DMSO to the standard plate. • 4. The buffer plate is be sonicated in a water bath for 10 min. • 5. The two plates are then placed onto the VWR orbital shaker to equilibrate for 24 hours at room temperature. • 6. The buffer plate is centrifuged at 4000 rpm for 30 min. • 7. Transfer 10 ul aliquots of supernatant from the buffer plate to a sample plate and dilute 5 fold. • 8. Inject both compound standard and sample into the UPLC/UV/CLND/MS to generate multi detector qualitative and quantitive analytical data. • 9. Data was processed with Xcalibur. CLND equimolar response was used for measuring compound concentration of DMSO solution. UV270 nm or MS relative ratio was used for solubility determination.

[1] = Pharmacokinetics in mice (iv and PO); type: in vivo; settings: for Cmax / Tmax / AUC / clearance / bioavailability / Vd: mouse, in vivo; for bioavailability: read-out: Oral BA (% F); for Vd: read-out: Vss
[2] = Pharmacokinetics in rat (iv and PO); type: in vivo; settings: for Cmax / Tmax / AUC / clearance / bioavailability / Vd: in vivo; for bioavailability: read-out: Oral BA (% F); for Vd: read-out: Vss
[3] = Pharmacokinetics in dog (iv and PO); type: in vivo; settings: for Cmax / Tmax / AUC / clearance / bioavailability / Vd: in vivo; for bioavailability: read-out: Oral BA (% F); for Vd: read-out: Vss
[4] = High throughput solubility measurement in PBS; type: physicochemical; settings: Cl-free PBS, aqueous buffer, thermodynamic from solid; PBS (phosphate-buffered saline), pH 6.8, 24 hours at room temperature
From the text: The following table provides data for solubility of compounds of the invention in PBS (phosphate-buffered saline), using a standard solubility screening method.

Nav1.5 = Nav1.5 (Homo sapiens (Human), UniProt Q14524); test: Inhibition of cardiac sodium ion channel Nav1.5; type: biochemical

Compound | EC50 (HBsAg secretion) [nM] | T1/2term. [1] [h] | Cmax ([1]; PO 2.0 mg/kg) [µM] | Tmax ([1]; PO 2.0 mg/kg) [h] | AUC ([1]; PO 2.0 mg/kg, read-out: AUC PO) [µM·h] | clearance ([1]; iv 1.0 mg/kg) [mL/min/kg] | bioavailability ([1]; iv 1.0 mg/kg, PO 2.0 mg/kg) [%] | AUC ([1]; iv 1.0 mg/kg, read-out: AUC iv) [µM·h] | Vd ([1]; iv 1.0 mg/kg) [L/kg] | T1/2term. [2] [h] | Cmax ([2]; PO 2.0 mg/kg) [µM] | Tmax ([2]; PO 2.0 mg/kg) [h] | AUC ([2]; PO 2.0 mg/kg, read-out: AUC PO) [µM·h] | clearance ([2]; iv 1.0 mg/kg) [mL/min/kg] | bioavailability ([2]; iv 1.0 mg/kg, PO 2.0 mg/kg) [%] | AUC ([2]; iv 1.0 mg/kg, read-out: AUC iv) [µM·h] | Vd ([2]; iv 1.0 mg/kg) [L/kg] | T1/2term. [3] [h] | Cmax ([3]; PO 1.0 mg/kg) [µM] | Tmax ([3]; PO 1.0 mg/kg) [h] | other results
COCCCOc1cc2c(cc1OC)-c1c(F)c(=O)c(C(=O)O)cn1[C@H]1[C@@H]2CCC1(C)C [Compound 3.1, (3aS,12bR)-8-fluoro-10-methoxy-11-(3-methoxypropoxy)-3,3-dimethyl-7-oxo-1,2,3,3a,7,12b-hexahydrocyclopenta[c]pyrido[2,1-a]isoquinoline-6-carboxylic acid] | 0.3 | 3.8 | 3 | 0.5 | 9.5 | 6.9 | 87 | 5.5 | 1 | 9.2 | 6.5 | 0.5 | 19.6 | 2.1 | 57 | 16.6 | 0.6 | 7.2 | 6.2 | 1.5 | AUC ([3]; PO 1.0 mg/kg, read-out: AUC PO): 26.7 µM·h; clearance ([3]; iv 0.5 mg/kg): 1.3 mL/min/kg; bioavailability ([3]; iv 0.5 mg/kg, PO 1.0 mg/kg): 96%; AUC ([3]; iv 0.5 mg/kg, read-out: AUC iv): 13.3 µM·h; Vd ([3]; iv 0.5 mg/kg): 0.6 L/kg; solubility at 24 h [4]: 1600 µM (≈ 713 µg/mL)
COCCCOc1cc2c(cc1OC)-c1cc(=O)c(C(=O)O)cn1[C@H]1[C@@H]2OCC1(C)C [Compound 4.1, (3aR,12bR)-10-methoxy-11-(3-methoxypropoxy)-3,3-dimethyl-7-oxo-3,3a,7,12b-tetrahydro-2H-furo[3,2-c]pyrido[2,1-a]isoquinoline-6-carboxylic acid] | 0.3 | 1.8 | 1.9 | 1 | 7.2 | 12.7 | 100 | 2.9 | 1.5 | 1.2 | 2.6 | 2 | 10.2 | 4.9 | 65 | 8 | 0.75 | 12.3 | 3.3 | 0.8 | AUC ([3]; PO 1.0 mg/kg, read-out: AUC PO): 12.8 µM·h; clearance ([3]; iv 0.5 mg/kg): 2.7 mL/min/kg; bioavailability ([3]; iv 0.5 mg/kg, PO 1.0 mg/kg): 94%; AUC ([3]; iv 0.5 mg/kg, read-out: AUC iv): 6.2 µM·h; Vd ([3]; iv 0.5 mg/kg): 1.7 L/kg; solubility at 24 h [4]: 1600 µM (≈ 687 µg/mL); EC50 (Nav1.5): > 500000 nM
